The target of one data set is T1, PTPN7/LC-PTP (Homo sapiens, UniProt P35236).
T1 construct: purchased Recation Biology Inc
The data set is described as follows: Phosphatase assay PTPN7/LC-PTP. Format: biochemical.

Data set [1] is described as follows: Pharmacokinetic study, intravenous administration in male SD rats. Format: in vivo. The settings on record: rat plasma, I.V. 5 mg/kg. As to the method: The objective of this example was to determine the pharmacokinetic profile of ENT-03 (Compound III) via intravenous and oral administration in male SD Rats.
Animal feeding control: Animals were food fasted overnight prior to dosing and fed 4 hours after administration having free access to water.
PK Sample Analyses: Concentrations of ENT-03 (Compound III) in the plasma and dose samples were analyzed using a LC-MS/MS method. WinNonlin (Phoenix™, version 6.1) or other similar software was used for pharmacokinetic calculations. The following pharmacokinetic parameters were calculated, whenever possible from the plasma concentration versus time data.
IV Bolus administration: T1/2, C0, AUClast, AUCinf, MRTinf, Cl, Vss, Number of Points for Regression.

Setting [2] is: individual animals Rat 1-3, listed as ENT-03 (Compound III), 5 mg/kg.

Each structure is given as a SMILES string. Values joined by “and” are separate entries in the source; they are usually repeats but may differ in a detail not shown here. Identical values can stand only once.

T1 sequence (P35236 whole entry): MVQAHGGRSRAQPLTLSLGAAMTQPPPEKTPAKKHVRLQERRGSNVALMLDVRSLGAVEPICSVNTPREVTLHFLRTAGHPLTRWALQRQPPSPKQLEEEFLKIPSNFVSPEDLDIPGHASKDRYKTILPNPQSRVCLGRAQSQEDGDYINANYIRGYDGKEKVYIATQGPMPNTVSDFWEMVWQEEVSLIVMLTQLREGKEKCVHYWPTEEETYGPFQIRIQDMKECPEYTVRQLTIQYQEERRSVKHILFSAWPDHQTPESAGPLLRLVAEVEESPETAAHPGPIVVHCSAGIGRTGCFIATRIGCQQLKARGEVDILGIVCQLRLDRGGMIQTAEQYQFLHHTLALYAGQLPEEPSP

Consider `CC(C)[C@@H](CC[C@@H](C)[C@H]1CC[C@H]2[C@@H]3[C@H](O)C[C@H]4C[C@@H](NCCCNCCCCNCCCN)CC[C@]4(C)[C@H]3CC[C@]12C)OS(=O)(=O)O` (single isomer, unassigned) [ENT-02, trodusquemine], for which the “activity on PTPN7/LC-PTP, in words” value on PTPN7/LC-PTP was “target”.
Take `CC(CCCC(C)C1CCC2C3C(O)CC4CC(NCCCNCCCCNCCCN)CCC4(C)C3CCC12C)C(=O)O` (single isomer, unassigned; ent-03) [ENT-03, 3-β-Spermino-7α-hydroxy-5α-cholestanoic acid]: in data set [1] (Mean of 3 male SD rats), the AUClInf turned out to be 986.457 µg·h/mL, the AUClast turned out to be 609.005 µg·h/mL, the “AUC—%Extrap—obs” value was 38.2% and the C0 turned out to be 86.337 µg/mL. Besides, in data set [1] (Mean of 3 male SD rats), the Cl_obs was found to be 5.1 mL/h/kg, the “MRTInf—obs” value was determined as 24.6 h, the T1/2 stood at 18.2 h and the “Vss—obs” value stood at 0.125 L/kg. For the same molecule, in data set [1] (setting [2]), the AUClInf was 922.477 µg·h/mL and 941.13 µg·h/mL and 1095.763 µg·h/mL; the AUClast is 557.542 µg·h/mL and 608.321 µg·h/mL and 661.154 µg·h/mL; the “AUC—%Extrap—obs” value was 39.6% and 35.4% and 39.7%; the C0 was 80.402 µg/mL and 102.409 µg/mL and 76.2 µg/mL. In addition, in data set [1] (setting [2]), the Cl_obs was 5.42 mL/h/kg and 5.31 mL/h/kg and 4.57 mL/h/kg; the “MRTInf—obs” value is 25.3 h and 22.9 h and 25.5 h; the T1/2 is 18.6 h (2×) and 17.5 h; the “Vss—obs” value was 0.137 L/kg and 0.122 L/kg and 0.116 L/kg.

The record behind these values is patent US12503485B2, “Human aminosterol ENT-03 compounds, related compositions comprising the same, and methods of using the same” (Enterin, Inc., priority 2019, dated 2025).
